{"source": "patent US9271953B2", "about": "“Methods for correction of organ dysfunction” (priority 2013, dated 2016)", "key": {"IGF-1": {"test_system": "IGF-1", "assay": "IGF-1 levels in Patient 1", "type": "in vivo, human", "conditions": "2 units/day growth hormone, before compound", "text": "Not intending to be bound by theory, and in no way a limitation of the present invention, the invention (excluding nicotine) can be used to stimulate production of human growth hormone, often found to be low in chronic pain syndromes, including disorders of connective tissue, “POTS”, “Hyperadrenergic POTS” and fibromyalgia. Rather than treating the patients with exogenous growth hormone, the present invention instead treats the source of the low growth hormone levels (as measured via IGF-1). Growth hormone levels can then return to normal and dysregulation of the hypothalamic-pituitary-adrenal axis is normalized. […]\nPatient 1: Diagnoses: joint hypermobility (judged by the Beighton Scale), autonomic dysfunction (patient failed the Tilt Table Test of autonomic function) and visual and auditory hallucinations, hypothermia. […] Their liver enzymes and kidney function began to show abnormal readings, and pain at the site of the ileocecal valve began to occur. […]"}, "[1]": {"test_system": "post-ganglionic nicotinic acetylcholine receptors", "assay": "Oral single agents in patients with damaged pre-ganglionic vagus nerve: organ function", "type": "in vivo, human", "text": "In one embodiment of the invention, transdermal (topical) application of nicotine, applied near the lower right-hand corner of the abdomen stimulates the post-ganglionic nicotinic acetylcholinergic receptor controlling the ileocecal valve, for example, allowing the valve to open. Oral nicotine, however, is ineffective at stimulating the post-ganglionic nicotinic acetylcholinergic nerves in the abdomen, yet it exposes the patient to the direct (and negative) effect on the cerebellum.^38 In numerous patients tested, oral physostigmine or Huperzine A (both inhibitors of acetylcholinesterase, and thus indirect stimulators of both nicotinic and muscarinic acetylcholine receptors) were not effective in stimulating organ function when the pre-ganglionic portion of the vagus nerve was damaged. It is clear that in addition to inhibitors of acetylcholinesterase, other ingredients are necessary to stimulate organ function in this patient population. […] It was only through extensive testing that the inventor was able to discover the proper range of oral ingredients which were effective in stimulating these post-ganglionic nerves."}, "[2]": {"test_system": "post-ganglionic nicotinic acetylcholine receptors", "text": "Nicotine is a powerful nicotinic agonist found in the leaves of the tobacco plant (Nicotiana tabacum)."}, "[3]": {"conditions": "in vivo; cited from earlier work"}, "[4]": {"test_system": "patients with connective tissue disorders and/or autonomic dysfunction", "assay": "Patient studies / case studies with the oral compound", "type": "in vivo, human", "conditions": "patients with organ malfunction secondary to poor vagus nerve function", "protocol": "The composition and method of use of the present invention is also unique because it corrects for these numerous causes of dysfunction and includes ingredients in the quantities and form required to work around the genetic, vascular, and/or co-morbid components involved. IBS/gastroparesis/constipation was initially targeted. In patient studies, a response to medication (a bowel movement) occurred within 2-12 hours, without exception. Patients were identified with a mix of co-morbid conditions including chronic fatigue syndrome, fibromyalgia, joint hypermobility and autonomic dysfunction.\nThe present composition was provided to a number of patients having certain diagnosed diseases, as summarized in Table 1 above and suffering from a variety of medical conditions or symptoms associated with those diseases, again, as summarized above."}}, "note": "“Also recorded” adds a separate entry of the source.", "data": [{"compound": "growth hormone: exogenous growth hormone, 2 units/day", "values": [{"measurement": "IGF-1 levels raised to the upper normal range", "setting": "IGF-1", "result": "which it did"}]}, {"compound": "CN1CCCC1c1cccnc1", "note": "(centres unmarked) [nicotine, Nicotine]", "values": [{"measurement": "opening the ileocecal valve, arresting gastroparesis/chronic constipation", "setting": "[1]; oral doses of nicotine", "result": "ineffective"}, {"measurement": "stimulating the post-ganglionic nicotinic acetylcholinergic nerves/receptors (organ function)", "setting": "[1]; oral nicotine", "result": "ineffective; also recorded: not effective"}, {"measurement": "skin side effects", "setting": "[2]; Patient 1, 7 g transdermal nicotine", "result": "intractable itching, redness, and skin welting"}, {"measurement": "ileocecal valve opening", "setting": "[2]; Patient 1, 7 g transdermal nicotine near the ileocecal valve", "result": "opened the valve overnight"}, {"measurement": "reversal of chronic constipation, gastroparesis, dysmotility, ileocecal valve and Sphincter of Oddi dysfunction: time", "setting": "[2]; transdermal 3-21 mg, lower right-hand quadrant of abdomen", "result": "usually within hours"}, {"measurement": "opening of the ileocecal valve", "setting": "[2]; transdermal 3-21 mg, patients with poor vagus nerve function, valve not physically damaged", "result": "never failed to open the ileocecal valve"}, {"measurement": "lethal dosage", "setting": "[3]", "result": 60, "unit": "mg"}]}, {"compound": "C/C=C1\\[C@H]2C=C(C)C[C@]1(N)c1ccc(=O)[nH]c1C2", "note": "[Huperzine A]", "values": [{"measurement": "response to medication", "setting": "[1]; Patient 2, prescribed for mental fatigue", "result": "no response"}, {"measurement": "stimulating organ function when the pre-ganglionic portion of the vagus nerve was damaged", "setting": "[1]; oral, numerous patients tested", "result": "not effective"}]}, {"compound": "CC(=O)O[C@H](CC(=O)[O-])C[N+](C)(C)C", "note": "[Acetyl-L-Carnitine]", "values": [{"measurement": "organ function when Acetyl-L-Carnitine was added to the compound", "setting": "[4]", "result": "invariably achieved better organ function"}]}]}
